Reference: patent US7943599B2 (priority 2005, dated 2011)
Like-named read-outs stand apart in the source and are kept apart here.

Assays:
[1] = test system: Human keratinocytes (HaCat); type: cell-based; conditions: for Malonaldehyde and 4-hydroxy alkenal: HaCat, untreated group taken as 100
Procedure: Human keratinocytes (HaCat) were plated at a density of 1.0×10^6 per 60-mm dish and then cultured in penicillin/streptomycin-containing DMEM (10% FBS) media at conditions of 37° C. and 5% CO2 for 1 week. Then, the culture media were treated with 10^−4 M of each of sesamol, the sesamol derivative of Example 1, and tocopherol as appositive control, for 24 hours. At the next day, the media were treated with 4 mM of t-BHP (t-butyl hydroperoxide) together with each of said compounds and then cultured at conditions of 37° C. and 5% CO2 for 4 hours, after which the cells were collected. The collected cells were dissolved by repeatedly performing freezing/thawing processes, and the following tests were performed in accordance with the method described in an assay kit.
In other words, in the present invention, a lipid peroxide assay kit (Calbiochem) was used as a reagent, and lipid peroxidation was measured using the principle in which long-chain unsaturated fatty acids such as malonaldehyde and 4-hydroxy alkenal form stable compounds at 586 nm by reaction with said reagent. The measurement results are shown in Table 1 below in comparison with an untreated group taken as 100.

[2] = test system: Fibroblasts; type: cell-based; conditions: 10^-4 M; for Procollagen Synthesis (%): 24 h, serum-free media, untreated group taken as 100%
Procedure: Fibroblasts were seeded into each well of a 24-well plate at density of 10^6 cells and cultured to 90% confluence. The cultured cells were cultured in serum-free media for 24 hours and then treated with 10^−4 M of each of tocopherol, sesamol and the sesamol derivative of Example 1, which have been dissolved in serum-free media. Then, the cells were cultured in a CO2 incubator for 24 hours. The supernatants of the cell culture media were collected and observed for an increase or decrease in procollagen using a Procollagen type (A) kit. The test results are shown in Table 2 below, in which the effect of each compound on the procollagen synthesis is compared with that of an untreated group, taken as 100%.

[3] = test system: alkaline phosphatase; test: Hydrolysis by phosphatase in phosphate buffer, HPLC of 3-aminopropane phosphoric acid formed; type: in vitro ADME; conditions: alkaline phosphatase (Sigma-Aldrich), phosphate buffer pH 7.4, HPLC, FIG. 1
Procedure: In order to examine whether the sesamol, 3-aminopropane phosphoric acid diester is hydrolyzed by phosphatase present on the skin into sesamol and 3-aminopropane phosphoric acid, the following test was performed. The sesamol, 3-aminopropane phosphoric acid diester of Example 1 and phsophatase were added in phosphate buffer (pH 7.4), followed by hydrolysis. As the phosphatase, alkaline phosphatase commercially available from Sigma-Aldrich Co. was used. The amount of 3-aminopropane phosphoric acid formed as the hydrolysis progressed was measured by HPLC (high-performance liquid chromatography), and the measurement results are shown in FIG. 1.

[4] = 10^-4 M compound 24 h, then 4 mM t-BHP together with compound 4 h

Compound | Malonaldehyde and 4-hydroxy alkenal [1, 4] | Procollagen Synthesis (%) [2] | antioxidant effect (in words) ([1]; 10^-4 M, t-BHP-treated HaCat, compared with sesamol and tocopherol) | hydrolysis by phosphatase into sesamol and 3-aminopropane phosphoric acid [3] | effect on collagen biosynthesis (in words) ([2]; fibroblasts) | Malonaldehyde and 4-hydroxy alkenal ([1]; 4 mM t-BHP alone, 4 h)
tocopherol | 270 | 110% | – | – | – | –
NCCCOP(=O)(O)Oc1ccc2c(c1)OCO2 [Sesamol derivative of Example 1, sesamol, 3-aminopropane phosphoric acid diester (I)] | 260 | 125% | antioxidant effect similar to those of sesamol and the positive control tocopherol | can be hydrolyzed by phosphatase | showed the effect of increasing collagen biosynthesis | –
Oc1ccc2c(c1)OCO2 [Sesamol, sesamol] | 250 | 103% | – | – | – | –
CC(C)(C)OO [t-BHP, t-butyl hydroperoxide] | – | – | – | – | – | 320
